Read-outs that look alike come from different tables or passages of the source.
Target: T1, human GluN1/GluN2B NMDA receptors (Homo sapiens, UniProt Q13224)
T1 construct: expressed in transfected cells
Test: Cell-based calcium flux (FLIPR) assay on cloned human NR1/NR2B ion channels expressed in mammalian cells (standard and HTS buffer variants);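 note: stable Tet-On inducible cell line, Ca2+ influx triggered by glutamate at about EC40 plus 10 µM glycine, fluorescent dye read-out over 5 min, normalized to control wells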

[1] = standard assay buffer (0.5 mM MgCl2 in dye loading buffer; 137 mM NaCl, 4 mM KCl in assay buffer), human GluN1/GluN2B, read-out: NR2B IC50 (μM) standard assay
[2] = standard assay buffer (0.5 mM MgCl2 dye loading; 137 mM NaCl, 4 mM KCl assay buffer), human GluN1/GluN2B cells, read-out: NR2B IC50 (μM) standard assay
[3] = HTS assay buffer (1.5 mM MgCl2 in dye loading buffer; 150 mM NaCl, 3 mM KCl in assay buffer), human GluN1/GluN2B, read-out: NR2B IC50 (μM) HTS assay

T1 sequence (Q13224 27-1484, other chains not shown): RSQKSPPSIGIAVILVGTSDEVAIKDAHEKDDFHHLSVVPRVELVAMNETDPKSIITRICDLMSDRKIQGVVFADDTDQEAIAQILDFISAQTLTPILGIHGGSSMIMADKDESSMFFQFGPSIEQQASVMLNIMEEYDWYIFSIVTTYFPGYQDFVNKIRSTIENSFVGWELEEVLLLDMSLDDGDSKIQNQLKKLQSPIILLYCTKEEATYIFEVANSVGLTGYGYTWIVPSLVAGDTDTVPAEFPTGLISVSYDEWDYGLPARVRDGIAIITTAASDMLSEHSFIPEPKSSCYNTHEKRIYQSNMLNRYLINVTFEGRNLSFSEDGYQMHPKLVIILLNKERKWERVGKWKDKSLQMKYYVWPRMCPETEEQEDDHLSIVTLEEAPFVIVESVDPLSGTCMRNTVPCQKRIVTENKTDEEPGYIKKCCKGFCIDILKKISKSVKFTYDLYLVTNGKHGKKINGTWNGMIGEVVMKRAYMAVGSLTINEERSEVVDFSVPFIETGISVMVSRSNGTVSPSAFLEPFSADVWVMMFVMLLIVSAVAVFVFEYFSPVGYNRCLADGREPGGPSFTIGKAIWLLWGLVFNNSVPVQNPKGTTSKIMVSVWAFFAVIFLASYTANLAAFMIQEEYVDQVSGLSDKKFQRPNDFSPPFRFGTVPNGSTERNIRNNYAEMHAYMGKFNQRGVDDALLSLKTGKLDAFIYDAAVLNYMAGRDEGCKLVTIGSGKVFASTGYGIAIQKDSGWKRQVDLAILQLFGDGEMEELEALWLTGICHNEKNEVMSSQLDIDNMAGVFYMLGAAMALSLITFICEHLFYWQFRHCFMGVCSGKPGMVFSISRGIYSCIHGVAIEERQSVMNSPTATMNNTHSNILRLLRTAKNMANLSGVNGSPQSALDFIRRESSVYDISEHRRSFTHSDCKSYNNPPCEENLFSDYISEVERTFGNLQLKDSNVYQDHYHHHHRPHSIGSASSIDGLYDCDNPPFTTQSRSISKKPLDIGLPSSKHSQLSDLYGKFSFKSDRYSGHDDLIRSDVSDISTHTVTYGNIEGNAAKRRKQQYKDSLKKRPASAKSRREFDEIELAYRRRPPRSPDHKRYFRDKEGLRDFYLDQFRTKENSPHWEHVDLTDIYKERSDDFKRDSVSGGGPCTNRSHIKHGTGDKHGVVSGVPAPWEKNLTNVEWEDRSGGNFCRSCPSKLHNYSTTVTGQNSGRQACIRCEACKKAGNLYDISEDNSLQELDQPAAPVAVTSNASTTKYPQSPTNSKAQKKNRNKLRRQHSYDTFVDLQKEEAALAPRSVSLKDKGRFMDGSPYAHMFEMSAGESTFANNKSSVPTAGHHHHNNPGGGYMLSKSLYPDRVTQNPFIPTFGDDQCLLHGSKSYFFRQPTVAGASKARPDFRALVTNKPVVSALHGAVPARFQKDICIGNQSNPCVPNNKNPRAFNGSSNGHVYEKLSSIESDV

Compound	IC50 [2] [µM]	also measured
Cn1c(=O)n(CC(=O)N2CC(F)(F)C2)c2cc(-c3ccc(F)c(C(F)F)c3)cnc21 [Example 586, 1-[2-(3,3-Difluoroazetidin-1-yl)-2-oxo-ethyl]-6-[3-(difluoromethyl)-4-fluoro-phenyl]-3-methyl-imidazo[4,5-b]pyridin-2-one]		IC50 [1]: 0.051 µM
CCOc1ccccc1-c1cnc2[nH]c(=O)n(Cc3cc(C)on3)c2c1 [Example 517, 6-(2-Ethoxyphenyl)-1-[(5-methylisoxazol-3-yl)methyl]-3H-imidazo[4,5-b]pyridin-2-one]		IC50 [1]: 0.709 µM
Cn1c(=O)n(Cc2cccnc2)c2cc(-c3ccc(F)c(Cl)c3)cnc21 [Example 355, 6-(3-Chloro-4-fluoro-phenyl)-3-methyl-1-(3-pyridylmethyl)imidazo[4,5-b]pyridin-2-one]		IC50 [1]: 0.044 µM
N#Cc1cccc(Cn2c(=O)[nH]c3ncc(-c4cccc(C(F)(F)F)c4)cc32)c1 [Example 212, 3-[[2-Oxo-6-[3-(trifluoromethyl)phenyl]-3H-imidazo[4,5-b]pyridin-1-yl]methyl]benzonitrile]	0.123	
O=c1[nH]c2ncc(-c3cccc(C(F)(F)F)c3)cc2n1Cc1cccnc1 [Example 230, 1-(3-Pyridylmethyl)-6-[3-(trifluoromethyl)phenyl]-3H-imidazo[4,5-b]pyridin-2-one]	0.017	
O=C(Cn1c(=O)[nH]c2ncc(-c3ccc(OCCF)c(C(F)(F)F)c3)cc21)N1CCC1 [Example 538, 1-[2-(Azetidin-1-yl)-2-oxo-ethyl]-6-[4-(2-fluoroethoxy)-3-(trifluoromethyl)phenyl]-3H-imidazo[4,5-b]pyridin-2-one]		IC50 [1]: 0.24 µM
Cc1cc(C)cc(-c2cnc3[nH]c(=O)n(CC(=O)NC4CC4)c3c2)c1 [Example 39, N-Cyclopropyl-2-[6-(3,5-dimethylphenyl)-2-oxo-3H-imidazo[4,5-b]pyridin-1-yl]acetamide]		IC50 (HTS assay buffer (1.5 mM MgCl2 dye loading; 150 mM NaCl, 3 mM KCl assay buffer), human GluN1/GluN2B cells, read-out: NR2B IC50 (μM) HTS assay): 1.03 µM
Cc1ccc(-c2cnc3c(c2)n(CC(=O)N(C)C)c(=O)n3C)s1 [Example 78, N,N-Dimethyl-2-[3-methyl-6-(5-methyl-2-thienyl)-2-oxo-imidazo[4,5-b]pyridin-1-yl]acetamide]	0.043	
O=C(Cn1c(=O)[nH]c2ncc(-c3cccc(C(F)(F)F)c3)cc21)N1CCC1 [Example 25, 1-[2-(Azetidin-1-yl)-2-oxo-ethyl]-6-[3-(trifluoromethyl)phenyl]-3H-imidazo[4,5-b]pyridin-2-one]	0.07	
CCc1ccc(-c2cnc3c(c2)n(CC(=O)N2CCC2)c(=O)n3C)s1 [Example 87, 1-[2-(Azetidin-1-yl)-2-oxo-ethyl]-6-(5-ethyl-2-thienyl)-3-methyl-imidazo[4,5-b]pyridin-2-one]	0.021	
N#Cc1cccc(-c2cnc3[nH]c(=O)n(Cc4ccccc4C#N)c3c2)c1 [Example 486, 2-[[6-(3-Cyanophenyl)-2-oxo-3H-imidazo[4,5-b]pyridin-1-yl]methyl]benzonitrile]		IC50 [3]: 3.84 µM
Cn1c(=O)n(CC(=O)N2CC(F)C2)c2cc(-c3ccc(C4CC4)s3)cnc21 [Example 106, 6-(5-Cyclopropyl-2-thienyl)-1-[2-(3-fluoroazetidin-1-yl)-2-oxo-ethyl]-3-methyl-imidazo[4,5-b]pyridin-2-one]	0.039	
O=c1[nH]c2ncc(-c3cccc(C(F)(F)F)c3)cc2n1CC1CC1 [Example 211, 1-(Cyclopropylmethyl)-6-[3-(trifluoromethyl)phenyl]-3H-imidazo[4,5-b]pyridin-2-one]	0.115	
N#Cc1ccccc1Cn1c(=O)[nH]c2ncc(-c3cccc(C(F)(F)F)c3)cc21 [Example 213, 2-[[2-Oxo-6-[3-(trifluoromethyl)phenyl]-3H-imidazo[4,5-b]pyridin-1-yl]methyl]benzonitrile]	0.375	
O=c1[nH]c2ncc(-c3cccc(C(F)(F)F)c3)cc2n1Cc1ncccn1 [Example 227, 1-(Pyrimidin-2-ylmethyl)-6-[3-(trifluoromethyl)phenyl]-3H-imidazo[4,5-b]pyridin-2-one]	0.096	
Cn1c(=O)n(CC(=O)N2CC(F)C2)c2cc(-c3cc(F)c(F)c(F)c3)cnc21 [Example 402, 1-[2-(3-Fluoroazetidin-1-yl)-2-oxo-ethyl]-3-methyl-6-(3,4,5-trifluorophenyl)imidazo[4,5-b]pyridin-2-one]		IC50 [1]: 0.016 µM
CN(C)C(=O)Cn1c(=O)n(C)c2ncc(-c3cc(F)c(F)c(C(F)(F)F)c3)cc21 [Example 431, 2-[6-[3,4-Difluoro-5-(trifluoromethyl)phenyl]-3-methyl-2-oxo-imidazo[4,5-b]pyridin-1-yl]-N,N-dimethyl-acetamide]		IC50 [1]: 0.095 µM
COC1CN(CCn2c(=O)[nH]c3ncc(-c4cccc(C(F)(F)F)c4)cc32)C1 [Example 149, 1-[2-(3-Methoxyazetidin-1-yl)ethyl]-6-[3-(trifluoromethyl)phenyl]-3H-imidazo[4,5-b]pyridin-2-one]	0.756	
COc1cccnc1Cn1c(=O)[nH]c2ncc(-c3cccc(C(F)(F)F)c3)cc21 [Example 233, 1-[(3-Methoxy-2-pyridyl)methyl]-6-[3-(trifluoromethyl)phenyl]-3H-imidazo[4,5-b]pyridin-2-one]	2.83	

Compound	IC50 [2] [µM]	also measured
CCCNCCn1c(=O)[nH]c2ncc(-c3cc(F)cc(F)c3)cc21 [Example 189, 6-(3,5-Difluorophenyl)-1-[2-(propylamino)ethyl]-3H-imidazo[4,5-b]pyridin-2-one]	2.57	
CN(C)C(=O)Cn1c(=O)n(C)c2ncc(-c3csc(C(F)(F)F)n3)cc21 [Example 108, N,N-Dimethyl-2-[3-methyl-2-oxo-6-[2-(trifluoromethyl)thiazol-4-yl]imidazo[4,5-b]pyridin-1-yl]acetamide]	0.047	
O=c1[nH]cccc1Cn1c(=O)[nH]c2ncc(-c3cccc(C(F)(F)F)c3)cc21 [Example 32, 1-[(2-Oxo-1H-pyridin-3-yl)methyl]-6-[3-(trifluoromethyl)phenyl]-3H-imidazo[4,5-b]pyridin-2-one]	8.33	
Cc1ccc(C(F)(F)F)cc1-c1cnc2[nH]c(=O)n(CC(=O)N3CCC3)c2c1 [Example 29, 1-[2-(Azetidin-1-yl)-2-oxo-ethyl]-6-[2-methyl-5-(trifluoromethyl)phenyl]-3H-imidazo[4,5-b]pyridin-2-one]	0.396	
O=c1[nH]c2ncc(-c3cccc(F)c3)cc2n1Cc1cccnc1 [Example 290, 6-(3-fluorophenyl)-1-(3-pyridylmethyl)-3H-imidazo[4,5-b]pyridin-2-one]	0.065	
Cc1csc(-c2cnc3[nH]c(=O)n(Cc4cc(C)on4)c3c2)c1 [Example 125, 1-[(5-Methylisoxazol-3-yl)methyl]-6-(4-methyl-2-thienyl)-3H-imidazo[4,5-b]pyridin-2-one]	0.082	
CCC(=O)Cn1c(=O)n(C)c2ncc(-c3ccc(F)c(C)c3)cc21 [Example 389, 6-(4-Fluoro-3-methyl-phenyl)-3-methyl-1-(2-oxobutyl)imidazo[4,5-b]pyridin-2-one]		IC50 [1]: 0.017 µM
Cn1c(=O)n(CC(=O)N2CC(F)C2)c2cc(-c3ccc(F)c(OC(F)F)c3)cnc21 [Example 589, 6-[3-(Difluoromethoxy)-4-fluoro-phenyl]-1-[2-(3-fluoroazetidin-1-yl)-2-oxo-ethyl]-3-methyl-imidazo[4,5-b]pyridin-2-one]		IC50 [1]: 0.028 µM
Cc1cc(C)cc(-c2cnc3[nH]c(=O)n(Cc4cccc(F)c4)c3c2)c1 [Example 495, 6-(3,5-Dimethylphenyl)-1-[(3-fluorophenyl)methyl]-3H-imidazo[4,5-b]pyridin-2-one]		IC50 [3]: 2.81 µM
Cn1c(=O)n(Cc2cccnn2)c2cc(-c3ccc(C(F)(F)F)s3)cnc21 [Example 84, 3-Methyl-1-(pyridazin-3-ylmethyl)-6-[5-(trifluoromethyl)-2-thienyl]imidazo[4,5-b]pyridin-2-one]	0.03	
Cn1cc(Cn2c(=O)n(C)c3ncc(-c4cccc(C(F)(F)F)c4)cc32)nn1 [Example 552, 3-Methyl-1-[(1-methyltriazol-4-yl)methyl]-6-[3-(trifluoromethyl)phenyl]imidazo[4,5-b]pyridin-2-one]		IC50 [1]: 0.13 µM
CCOc1ccc(F)cc1-c1cnc2[nH]c(=O)n(Cc3c(C)noc3C)c2c1 [Example 514, 1-[(3,5-Dimethylisoxazol-4-yl)methyl]-6-(2-ethoxy-5-fluoro-phenyl)-3H-imidazo[4,5-b]pyridin-2-one]		IC50 [3]: > 29 µM
Cn1cc(Cn2c(=O)[nH]c3ncc(-c4ccc(F)cc4)cc32)cn1 [Example 15, 6-(4-Fluorophenyl)-1-[(1-methylpyrazol-4-yl)methyl]-3H-imidazo[4,5-b]pyridin-2-one]	0.204	
COCCNC(=O)Cn1c(=O)[nH]c2ncc(-c3ccc(OC)cc3)cc21 [Example 444, N-(2-Methoxyethyl)-2-[6-(4-methoxyphenyl)-2-oxo-3H-imidazo[4,5-b]pyridin-1-yl]acetamide]		IC50 [3]: 0.747 µM
O=c1[nH]c2ncc(-c3cccc(C(F)(F)F)c3)cc2n1Cc1cccc(Cl)c1 [Example 21, 1-[(3-Chlorophenyl)methyl]-6-[3-(trifluoromethyl)phenyl]-3H-imidazo[4,5-b]pyridin-2-one]	1.34	
Cc1cc(-c2cnc3c(c2)n(Cc2cccnn2)c(=O)n3C)ccc1F [Example 50, 6-(4-Fluoro-3-methyl-phenyl)-3-methyl-1-(pyridazin-3-ylmethyl)imidazo[4,5-b]pyridin-2-one]	0.009	
CN(C)C(=O)Cn1c(=O)n(C)c2ncc(-c3ccc(Cl)s3)cc21 [Example 9, 2-[6-(5-Chloro-2-thienyl)-3-methyl-2-oxo-imidazo[4,5-b]pyridin-1-yl]-N,N-dimethyl-acetamide]	0.005	
O=c1[nH]c2ncc(-c3cccc(C(F)(F)F)c3)cc2n1Cc1cccnn1 [Example 232, 1-(Pyridazin-3-ylmethyl)-6-[3-(trifluoromethyl)phenyl]-3H-imidazo[4,5-b]pyridin-2-one]	0.017	

Source: patent US11759455B2, “Substituted 1H-imidazo[4,5-b]pyridin-2(3H)-ones and their use as GLUN2B receptor modulators” (JANSSEN PHARMACEUTICA NV, priority 2016, dated 2023)
